Like-named read-outs stand apart in the source and are kept apart here. Where a SMILES comes first, the peptide text is derived from it. Bridges are numbered along the chain shown (N, C = ends). [ ]: non-standard residue; d: D form. The star is where a group is joined. hPhe(3-Cl-4-CF3) = N[C@@H](CCc1ccc(C(F)(F)F)c(Cl)c1)C(=O)O; NPrPhe(4-CF3) = CCCN[C@@H](Cc1ccc(C(F)(F)F)cc1)C(=O)O; NMeGly(cPent) = CN[C@H](C(=O)O)C1CCCC1; Pro(4S-Me) = C[C@@H]1CN[C@H](C(=O)O)C1; NMeF = CN[C@@H](Cc1ccccc1)C(=O)O; NMeD = CN[C@@H](CC(=O)O)C(=O)O; NMeL = CN[C@@H](CC(C)C)C(=O)O; Morpholide = C1CN(*)CCO1; Ac5c = NC1(C(=O)O)CCCC1; Sar = CNCC(=O)O
Columns and labels:
[1] = molecular target: GDP-bound KRAS wild-type protein (Homo sapiens, UniProt P01116); experiment: Binding to KRAS by surface plasmon resonance (SPR), Single Cycle Kinetics; details: GDP-bound KRAS wild-type protein, read-out: KRAS KD
[2] = molecular target: GDP-bound NRAS wild-type protein (Homo sapiens, UniProt P01111); experiment: Binding to NRAS by surface plasmon resonance (SPR), Single Cycle Kinetics
[3] = molecular target: GDP-bound HRAS wild-type protein (Homo sapiens, UniProt P01112); experiment: Binding to HRAS by surface plasmon resonance (SPR), Single Cycle Kinetics
[4] = SPR Single Cycle Kinetics, 1:1 binding model
[5] = SPR, GDP-bound NRAS wild-type protein vs GDP-bound KRAS wild-type protein
[6] = SPR, GDP-bound HRAS wild-type protein vs GDP-bound KRAS wild-type protein

GDP-bound NRAS wild-type protein, sequence (P01111 whole entry): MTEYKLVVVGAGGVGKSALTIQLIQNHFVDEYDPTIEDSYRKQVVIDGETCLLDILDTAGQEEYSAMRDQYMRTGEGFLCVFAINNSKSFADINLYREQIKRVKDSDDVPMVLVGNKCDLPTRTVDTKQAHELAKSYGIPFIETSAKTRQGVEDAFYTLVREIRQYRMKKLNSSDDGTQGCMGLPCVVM
GDP-bound KRAS wild-type protein, sequence (P01116 whole entry): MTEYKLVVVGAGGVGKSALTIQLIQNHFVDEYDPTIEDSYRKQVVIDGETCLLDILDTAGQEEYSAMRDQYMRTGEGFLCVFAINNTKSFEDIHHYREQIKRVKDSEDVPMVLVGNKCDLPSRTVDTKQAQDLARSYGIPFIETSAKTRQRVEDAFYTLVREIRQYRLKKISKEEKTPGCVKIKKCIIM
GDP-bound HRAS wild-type protein, sequence (P01112 whole entry): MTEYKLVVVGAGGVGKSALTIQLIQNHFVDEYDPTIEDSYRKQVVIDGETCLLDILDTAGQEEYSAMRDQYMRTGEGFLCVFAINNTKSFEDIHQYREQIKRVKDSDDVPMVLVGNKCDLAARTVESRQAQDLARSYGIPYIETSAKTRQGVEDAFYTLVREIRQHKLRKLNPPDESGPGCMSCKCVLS

| SMILES | Kd [1, 4] [nM] | NRAS/KRAS (ratio of KD value with respect to GDP-bound NRAS wild-type protein to KD value with respect to KRAS) ([2]; SPR KD ratio NRAS/KRAS, class symbols) | HRAS/KRAS (ratio of KD value with respect to GDP-bound HRAS wild-type protein to KD value with respect to KRAS) ([3]; SPR KD ratio HRAS/KRAS, class symbols) | NRAS/KRAS (ratio of KD value for NRAS to KD value for KRAS) [2, 5] | HRAS/KRAS (ratio of KD value for HRAS to KD value for KRAS) [3, 6] | NRAS/KRAS (ratio of KD value with respect to NRAS to KD value with respect to KRAS) [2, 5] | HRAS/KRAS (ratio of KD value with respect to HRAS to KD value with respect to KRAS) [3, 6] | Kd ([1]; SPR, Single Cycle Kinetics) [nM] |
| --- | --- | --- | --- | --- | --- | --- | --- | --- |
| CCO[C@@H]1C[C@H]2C(=O)NC3(CC(C)(C)C3)C(=O)N(C)[C@@H](C3CCCC3)C(=O)N(C)[C@H](C(=O)N(C)CC)CC(=O)N(C)[C@@H](CC)C(=O)N[C@@H]([C@@H](C)CC)C(=O)N(C)CC(=O)N(C)[C@H]3C/C=C\CCN(C3=O)[C@@H](Cc3ccc(C(F)(F)F)cc3)C(=O)N(C)CC(=O)N[C@@H](CCc3ccc(C(F)(F)F)c(Cl)c3)C(=O)N2C1 [PP2823] | 0.13 | A (a compound having 10 or more and less than 20 is denoted as A) | A (a compound having 10 or more and less than 20 is denoted as A) |  |  |  |  |  |
| CC[C@H](C)[C@@H]1NC(=O)[C@H](CC(C)C)N(C)C(=O)C[C@@H](C(=O)N2CCOCC2)N(C)C(=O)[C@H](C2CCCC2)N(C)C(=O)C2(CCCC2)NC(=O)[C@@H]2CCCN2C(=O)[C@H](CCc2ccc(C(F)(F)F)c(Cl)c2)NC(=O)CN(C)C(=O)[C@H](Cc2ccccc2)N(C)C(=O)CN(C)C(=O)CN(C)C1=O [PP0039] ([NMeL]I[Sar][Sar][NMeF][Sar][hPhe(3-Cl-4-CF3)]P[Ac5c][NMeGly(cPent)][NMeD]-Morpholide; lactam N-11) | 0.17 |  |  | C (A compound having a KD ratio of 0.1 or more and less than 3 is denoted as C) | C (A compound having a KD ratio of 0.1 or more and less than 3 is denoted as C) |  |  |  |
| CCCN1C(=O)CN(C)C(=O)CN(C)C(=O)[C@H]([C@@H](C)CC)NC(=O)[C@H](CC(C)C)N(C)C(=O)C[C@@H](C(=O)N2CCOCC2)N(C)C(=O)[C@H](C2CCCC2)N(C)C(=O)C2(CCCC2)NC(=O)[C@@H]2C[C@H](C)CN2C(=O)[C@H](CCc2ccc(C(F)(F)F)c(Cl)c2)NC(=O)CN(C)C(=O)[C@@H]1Cc1ccc(C(F)(F)F)cc1 [PP0447] ([NMeL]I[Sar][Sar][NPrPhe(4-CF3)][Sar][hPhe(3-Cl-4-CF3)][Pro(4S-Me)][Ac5c][NMeGly(cPent)][NMeD]-Morpholide; lactam N-11) | 0.18 |  |  |  |  | B (a compound having 3 or more and less than 10 is denoted as B) | C (A compound having a KD ratio of 0.1 or more and less than 3 is denoted as C) |  |
| CCO[C@@H]1C[C@H]2C(=O)NC3(CCC3)C(=O)N(C)[C@@H](C3CCCC3)C(=O)N(C)[C@H](C(=O)N(C)C)CC(=O)N(C)[C@@H](CCC(F)F)C(=O)N[C@@H]([C@@H](C)CC)C(=O)N(C)CC(=O)N(C)[C@H]3C/C=C\CCN(C3=O)[C@@H](Cc3ccc(C(F)(F)F)cc3)C(=O)N(C)CC(=O)N[C@@H](CCc3cc(F)c(C(F)(F)F)c(F)c3)C(=O)N2C1 [PP1121, (2S,8S,12R,14S,20S,23S,27S,30S,36S,38Z)-20-cyclopentyl-27-(3,3-difluoropropyl)-8-[2-[3,5-difluoro-4-(trifluoromethyl)phenyl]ethyl]-12-ethoxy-N,N,4,19,22,26,32,35-octamethyl-30-[(1S)-1-methylpropyl]-3,6,9,15,18,21,25,28,31,34,42-undecaoxo-2-[[4-(trifluoromethyl)phenyl]methyl]spiro[1,4,7,10,16,19,22,26,29,32,35-undecazatricyclo[34.5.1.0^10,14]dotetracont-38-ene-17,1′-cyclobutane]-23-carboxamide] |  |  |  | A (a compound having 10 or more and less than 20 is denoted as A) | A (a compound having 10 or more and less than 20 is denoted as A) |  |  | 0.049 |
